System: mice with spinal cord injuries
Test: Neural stem cell treatment after spinal cord injury (BMS scores, rotarod treadmill tests)
Assay type: in vivo, mouse
Conditions: neural stem cells pre-treated with cannabidiol 1-50 μM for 10 days plus diet supplemented with microencapsulated hemp oil composition; combined treatment
Experimental: Mouse neural stem cells expressing green fluorescent protein (GFP) under the control of a constitutive promoter are treated with either cannabidiol (1 μM, 5 μM, 10 μM or 50 μM) or vehicle control for 10 days. The cells are then transplanted directly into the spinal cords of mice with spinal cord injuries. Mice are maintained on a control diet or a diet supplemented with a microencapsulated hemp oil composition comprising cannabinoids, including cannabidiol, at concentrations similar to those used in the cell culture media. Mice are monitored daily for signs of spinal cord recovery evaluations of locomotor function based on Basso Mouse Scale (BMS) scores, a locomotor rating scale based on the frequency analyses of seven locomotor categories, and rotarod treadmill tests. Two months after the stem cell treatment the mice are sacrificed and the spinal cords are histologically examined.

For `C=C(C)[C@@H]1CCC(C)=C[C@H]1c1c(O)cc(CCCCC)cc1O` [cannabidiol], the “spinal cord recovery (locomotor function)” value was “more rapid and more robust recovery”.
